Measurements from patent US8309577B2, “Quinuclidine compounds as α-7 nicotinic acetylcholine receptor ligands” (Bristol-Myers Squibb Company, priority 2008, dated 2012).
pEC50: −log10 of the molar value.

Target: T1, α-7 nicotinic acetylcholine receptor channel expressed in HEK 293 cells (Rattus norvegicus, UniProt Q05941)
T1 construct: expressed in transfected cells
Experiment: Ca2+-sensitive fluorescence-based FLIPR assay, α7 nicotinic ACh receptor channel function (agonist)
Format: cell-based
Conditions: not given
Experimental: I) α7 Nicotinic Acetycholine Receptor Binding. Membranes were prepared for binding using HEK293 cells stably expressing the rat α7 nicotinic acetycholine receptor (rat α7 nAChR). Cells were homogenized at 4° C. in hypotonic lysis buffer consisting of 10 mM Tris (pH 7.4), 5 mM EDTA and protease inhibitors and centrifuged at 32000×g for 20 minutes. The pellet was washed once in membrane wash buffer consisting of 50 mM Tris (pH 7.4), 1 mM EDTA and protease inhibitors and centrifuged at 32000×g for 20 minutes. This pellet was then resuspended in assay buffer consisting 50 mM KH2PO4 (pH 7.4 at 25° C.), 1 mM EDTA, 0.005% Triton-X 100 and 0.1% (v/v) Sigma Protease Inhibitor Cocktail. Aliquots were then frozen in dry ice/ethanol and kept at −80° C. until the day of the assay. II) A Ca^2+-Sensitive, Fluorescence-Based Assay α-7 for Nicotinic Acetylcholine Receptor Channel Function In Mammalian Cells (“FLIPR”). Summary: Lead compounds are evaluated for agonist activity at […], α3β4, […], and α1β1δ1ε sub-types of nicotinic ACh receptor ion channels expressed in mammalian HEK 293 cells. Agonist potency and efficacy values are determined from kinetic fluorescence Ca^2+ influx measurements made using a 384 well FLIPR (Fluorescence Image Plate Reader). […] In this assay, channel expressing HEK cell lines seeded in 384 well assay plates are loaded with a membrane permeant fluorescent Ca^2+ indicator dye, whose 510 nm green emission signal increases in response to elevation of intracellular Ca^2+ concentration. The basal fluorescence from the cells is monitored in real time, followed by the acute addition of test compounds.
Materials and Methods: Reagents: The acetomethoxy (AM) ester of the Ca^2+ indicator dye Fluo-4 was obtained from InVitrogen, (Carlsbad, Calif.). Acetylcholine and all buffer constituents were purchased from Sigma Chemical Company, St. Louis, Mo. G418 and Minimal Essential Medium were purchased from InVitrogen Life Technologies, Carlsbad, Calif. Fetal bovine serum was purchased from (InVitrogen, Carlsbad, Calif.).
Cell Culture: HEK-293 cells were grown in Minimal Essential Medium containing 10% (v/v) fetal bovine serum at 37° C. in a 5% CO2 incubator. HEK-293 cells stably expressing the ion channels were grown in the same medium with the addition of 500 μg/ml G418.
Ca^2+ flux assays of Ca^2+ channels expressed in HEK-293 cells: HEK-293 cells expressing the ion channels of interest were plated in 384 well, black-walled, clear-bottomed, poly-D-lysine coated plates at a density of ˜20,000 cells/well in 20 μl of Minimal Essential Medium containing 10% (v/v) fetal bovine serum and incubated for 2 days at 29° C. in a 5% CO2 incubator. Prior to assay, cells were loaded with the Fluo-4 AM ester. […] Dye loading was allowed to proceed for 90 minutes at room temperature at which time the dye loading solution was removed and replaced with 40 μl/well of Hanks buffer. Cells loaded with dye were loaded onto a FLIPR384 (Molecular Devices, Sunnyvale, Calif.). Fluo-4 dye was excited using the 488 nm line of an argon laser. Emission was filtered using a 540+/−30 nm bandpass filter. For evaluation of the effects of test compounds using the Ca^2+ flux assay, compounds to be tested were provided in assay ready plates. For nicotinic receptor ion channel expressing cells, the assay was initiated by the addition of 20 μl/well of Hanks buffer containing test compounds. For all assays, data were collected at 1 Hz for 10 seconds (baseline), at which time the compound containing stimulus buffers are added, and further measurements collected at 0.33 Hz for 3 min.
Data Analysis: The statistical robustness of the nicotinic receptor Ca^2+ flux assays is determined from blanks and totals wells. […] The raw fluorescence units data files generated on the FLIPR plate reader are automatically exported and processed by in-house data analysis tools.

T1 sequence (Q05941 23-502): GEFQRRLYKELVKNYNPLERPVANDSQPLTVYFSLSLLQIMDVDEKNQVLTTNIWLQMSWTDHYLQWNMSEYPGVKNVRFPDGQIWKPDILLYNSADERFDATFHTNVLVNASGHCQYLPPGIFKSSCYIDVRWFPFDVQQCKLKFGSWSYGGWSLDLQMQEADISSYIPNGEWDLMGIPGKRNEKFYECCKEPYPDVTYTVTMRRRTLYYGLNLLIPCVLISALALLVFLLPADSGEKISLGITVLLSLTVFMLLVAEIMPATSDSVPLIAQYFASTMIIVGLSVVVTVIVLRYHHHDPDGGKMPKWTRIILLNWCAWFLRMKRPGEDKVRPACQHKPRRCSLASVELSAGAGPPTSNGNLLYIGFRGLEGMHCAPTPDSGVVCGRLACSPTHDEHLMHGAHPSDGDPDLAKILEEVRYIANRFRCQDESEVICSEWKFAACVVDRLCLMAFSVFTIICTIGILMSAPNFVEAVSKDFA

Structure (SMILES)	pEC50
c1cncc(/N=C2\NCC3(CN4CCC3CC4)O2)c1 (racemic) [Example 18, (E)-N-(1′-Azaspiro[oxazolidine-5,3′-bicyclo[2.2.2]octane]-2-ylidene)pyridin-3-amine]	5.41

Same assay, conditions: FLIPR α7 (EC50, nM), Table 1; HEK 293 cells, agonist Ca2+ flux

Structure (SMILES)	EC50 [nM]
COc1nccnc1NC1=NCC2(CN3CCC2CC3)O1 (racemic) [Example 120]	875
c1ccc(-c2cnc(NC3=NCC4(CN5CCC4CC5)O3)s2)cc1 (single isomer, unassigned) [Example 4b]	230
Cc1cccc2sc(NC3=NCC4(CN5CCC4CC5)O3)nc12 (single isomer, unassigned) [Example 6a]	4340
c1ccc2[nH]c(NC3=NCC4(CN5CCC4CC5)O3)nc2c1 (single isomer, unassigned) [Example 8a, N-(1H-benzo[d]imidazol-2-yl)-4H-1′-azaspiro[oxazole-5,3′-bicyclo[2.2.2]octan]-2-amine]	120
Clc1ccc2nc(NC3=NCC4(CN5CCC4CC5)O3)sc2c1 (single isomer, unassigned) [Example 9a, N-(6-Chlorobenzo[d]thiazol-2-yl)-4H-1′-azaspiro[oxazole-5,3′-bicyclo[2.2.2]octan]-2-amine]	7310
CCOc1ccc2nc(NC3=NCC4(CN5CCC4CC5)O3)sc2c1 (single isomer, unassigned) [Example 11b, N-(6-Ethoxybenzo[d]thiazol-2-yl)-4H-1′-azaspiro[oxazole-5,3′-bicyclo[2.2.2]octan]-2-amine]	213

Same assay, conditions: FLIPR α7 activity rating (EC50, nM), Table 1; HEK 293 cells, agonist Ca2+ flux

Structure (SMILES)	EC50 [nM]
c1ccc2sc(NC3=NCC4(CN5CCC4CC5)O3)nc2c1 (racemic) [Example 1, N-(benzo[d]thiazol-2-yl)-4H-1′-azaspiro[oxazole-5,3′-bicyclo[2.2.2]octan]-2-amine]	< 100
COc1ccc2nc(NC3=NCC4(CN5CCC4CC5)O3)sc2n1 (racemic) [Example 2, N-(5-Methoxythiazolo[5,4-b]pyridin-2-yl)-4H-1′-azaspiro[oxazole-5,3′-bicyclo[2.2.2]octan]-2-amine]	100 to 1000
Clc1cccc2sc(NC3=NCC4(CN5CCC4CC5)O3)nc12 (racemic) [Example 7, N-(4-chlorobenzo[d]thiazol-2-yl)-4H-1′-azaspiro[oxazole-5,3′-bicyclo[2.2.2]octan]-2-amine]	100 to 1000
Oc1ccc2nc(NC3=NCC4(CN5CCC4CC5)O3)sc2c1 (racemic) [Example 13, 2-(4H-1′-Azaspiro[oxazole-5,3′-bicyclo[2.2.2]octane]-2-ylamino)benzo[d]thiazol-6-ol]	< 100
C1CCc2sc(NC3=NCC4(CN5CCC4CC5)O3)nc2C1 (racemic) [Example 14, N-(4,5,6,7-Tetrahydrobenzo[d]thiazol-2-yl)-4H-1′-azaspiro[oxazole-5,3′-bicyclo[2.2.2]octan]-2-amine]	100 to 1000
CC(C)c1csc(NC2=NCC3(CN4CCC3CC4)O2)n1 (racemic) [Example 15, N-(4-Isopropylthiazol-2-yl)-4H-1′-azaspiro[oxazole-5,3′-bicyclo[2.2.2]octan]-2-amine]	100 to 1000
c1csc(NC2=NCC3(CN4CCC3CC4)O2)n1 (racemic) [Example 16, N-(Thiazol-2-yl)-4H-1′-azaspiro[oxazole-5,3′-bicyclo[2.2.2]octan]-2-amine]	100 to 1000
COc1ccc(-c2nc(NC3=NCC4(CN5CCC4CC5)O3)sc2C)cc1 (racemic) [Example 17, N-(4-(4-Methoxyphenyl)-5-methylthiazol-2-yl)-4H-1′-azaspiro[oxazole-5,3′-bicyclo[2.2.2]octan]-2-amine]	100 to 1000
c1cncc(/N=C2\NCC3(CN4CCC3CC4)O2)c1 (racemic) [Example 18, (E)-N-(1′-Azaspiro[oxazolidine-5,3′-bicyclo[2.2.2]octane]-2-ylidene)pyridin-3-amine]	1000 to 100000
COc1ccc(-c2csc(NC3=NCC4(CN5CCC4CC5)O3)n2)cc1 (racemic) [Example 20, N-(4-(4-Methoxyphenyl)thiazol-2-yl)-4H-1′-azaspiro[oxazole-5,3′-bicyclo[2.2.2]octan]-2-amine]	100 to 1000
Cc1cc(C)c2c(NC3=NCC4(CN5CCC4CC5)O3)nsc2n1 (racemic) [Example 114]	100 to 1000
c1cnnc(NC2=NCC3(CN4CCC3CC4)O2)c1 (racemic) [Example 115]	1000 to 100000
COc1ccc(NC2=NCC3(CN4CCC3CC4)O2)nn1 (racemic) [Example 116]	1000 to 100000
COc1cncc(NC2=NCC3(CN4CCC3CC4)O2)n1 (racemic) [Example 118]	1000 to 100000
COc1nccnc1NC1=NCC2(CN3CCC2CC3)O1 (racemic) [Example 120]	100 to 1000
CC(C)(C)c1cc(NC2=NCC3(CN4CCC3CC4)O2)ncn1 (racemic) [Example 121]	1000 to 100000
Cc1cc(NC2=NCC3(CN4CCC3CC4)O2)nc(C)n1 (racemic) [Example 123]	1000 to 100000
Cc1ccc(NC2=NCC3(CN4CCC3CC4)O2)nn1 (racemic) [Example 124]	1000 to 100000
c1ccc2sc(NC3=NCC4(CN5CCC4CC5)O3)nc2c1 (single isomer, unassigned) [Example 1a]	1000 to 100000

Structure (SMILES)	EC50 [nM]
c1ccc2sc(NC3=NCC4(CN5CCC4CC5)O3)nc2c1 (single isomer, unassigned) [Example 1b]	< 100
COc1ccc2nc(NC3=NCC4(CN5CCC4CC5)O3)sc2n1 (single isomer, unassigned) [Example 2a]	1000 to 100000
COc1ccc2nc(NC3=NCC4(CN5CCC4CC5)O3)sc2n1 (single isomer, unassigned) [Example 2b]	100 to 1000
c1ccc(-c2cnc(NC3=NCC4(CN5CCC4CC5)O3)s2)cc1 (single isomer, unassigned) [Example 4a]	1000 to 100000
c1ccc(-c2cnc(NC3=NCC4(CN5CCC4CC5)O3)s2)cc1 (single isomer, unassigned) [Example 4b]	100 to 1000
COc1ccc2nc(NC3=NCC4(CN5CCC4CC5)O3)sc2c1 (single isomer, unassigned) [Example 5a]	1000 to 100000
COc1ccc2nc(NC3=NCC4(CN5CCC4CC5)O3)sc2c1 (single isomer, unassigned) [Example 5b]	< 100
Cc1cccc2sc(NC3=NCC4(CN5CCC4CC5)O3)nc12 (single isomer, unassigned) [Example 6a]	1000 to 100000
Cc1cccc2sc(NC3=NCC4(CN5CCC4CC5)O3)nc12 (single isomer, unassigned) [Example 6b]	< 100
Clc1cccc2sc(NC3=NCC4(CN5CCC4CC5)O3)nc12 (single isomer, unassigned) [Example 7a]	1000 to 100000
Clc1cccc2sc(NC3=NCC4(CN5CCC4CC5)O3)nc12 (single isomer, unassigned) [Example 7b]	< 100
c1ccc2[nH]c(NC3=NCC4(CN5CCC4CC5)O3)nc2c1 (single isomer, unassigned) [Example 8a, N-(1H-benzo[d]imidazol-2-yl)-4H-1′-azaspiro[oxazole-5,3′-bicyclo[2.2.2]octan]-2-amine]	100 to 1000
c1ccc2[nH]c(NC3=NCC4(CN5CCC4CC5)O3)nc2c1 (single isomer, unassigned) [Example 8b, N-(1H-benzo[d]imidazol-2-yl)-4H-1′-azaspiro[oxazole-5,3′-bicyclo[2.2.2]octan]-2-amine]	1000 to 100000
Clc1ccc2nc(NC3=NCC4(CN5CCC4CC5)O3)sc2c1 (single isomer, unassigned) [Example 9a, N-(6-Chlorobenzo[d]thiazol-2-yl)-4H-1′-azaspiro[oxazole-5,3′-bicyclo[2.2.2]octan]-2-amine]	1000 to 100000
Clc1ccc2nc(NC3=NCC4(CN5CCC4CC5)O3)sc2c1 (single isomer, unassigned) [Example 9b, N-(6-Chlorobenzo[d]thiazol-2-yl)-4H-1′-azaspiro[oxazole-5,3′-bicyclo[2.2.2]octan]-2-amine]	< 100
Cn1c(NC2=NCC3(CN4CCC3CC4)O2)nc2ccccc21 (single isomer, unassigned) [Example 10a, N-(1-methyl-1H-benzo[d]imidazol-2-yl)-4H-1′-azaspiro[oxazole-5,3′-bicyclo[2.2.2]octan]-2-amine]	100 to 1000
CCOc1ccc2nc(NC3=NCC4(CN5CCC4CC5)O3)sc2c1 (single isomer, unassigned) [Example 11b, N-(6-Ethoxybenzo[d]thiazol-2-yl)-4H-1′-azaspiro[oxazole-5,3′-bicyclo[2.2.2]octan]-2-amine]	100 to 1000
Cc1ccc2nc(NC3=NCC4(CN5CCC4CC5)O3)sc2c1 (single isomer, unassigned) [Example 12a, N-(6-Methylbenzo[d]thiazol-2-yl)-4H-1′-azaspiro[oxazole-5,3′-bicyclo[2.2.2]octan]-2-amine]	100 to 1000
Cc1ccc2nc(NC3=NCC4(CN5CCC4CC5)O3)sc2c1 (single isomer, unassigned) [Example 12b, N-(6-Methylbenzo[d]thiazol-2-yl)-4H-1′-azaspiro[oxazole-5,3′-bicyclo[2.2.2]octan]-2-amine]	1000 to 100000
